Source: US9708314B2, “Heterocyclic amide compound” (NISSAN CHEMICAL INDUSTRIES, LTD., priority 2013, dated 2017)

Tests used:
Assay type in all cases: in vivo
[1] = test system: Scirpus juncoides; assay: Test Example 1: herbicidal activity, application before weed generation in submerged conditions; settings: Seventeenth Table; for B: Scirpus juncoides (herbicidal effect grade): Application herbicide amount 320 g/ha
Procedure, shortened: (§1)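 Pre-emergence application to water surface of submerged pots (4 cm depth, alluvial soil) on sowing day, with 2.5-leaf rice transplanted; emulsion diluted to g/ha rates. Grown in greenhouse at 25–30 °C; 0–5 herbicidal/crop-effect score after three weeks.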

[2] = test system: Echinochloa oryzacola Vasing.; assay: as above; settings: Seventeenth Table; for A: Echinochloa oryzicola Vasing. (herbicidal effect grade): Application herbicide amount 320 g/ha
Procedure, shortened: as §1

[3] = test system: Monochoria vaginalis; assay: as above; settings: Seventeenth Table; for C: Monochoria vaginalis (herbicidal effect grade): Application herbicide amount 320 g/ha
Procedure, shortened: as §1

[4] = test system: Echinochloa crus-galli var. crus-galli; assay: Test Example 4: herbicidal effect by application to foliage (diluvial soil, plastic box)
Procedure, shortened: (§2)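 Plants were grown in sterilized diluvial soil in a greenhouse at 25-30° C for 14 days, then sprayed on stems and leaves with water-diluted emulsion formulation at set rates in g/ha. Weed control and crop injury were scored 3 weeks after treatment on a 0-5 herbicidal-ratio scale, from 0 (≤5%) to 5 (≥90%).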

[5] = test system: Galium spurium; assay: as above
Procedure, shortened: as §2

[6] = test system: Alopecurus myosuroides; assay: as above
Procedure, shortened: as §2

[7] = test system: Stellaria media; assay: as above
Procedure, shortened: as §2

[8] = test system: Avena fatua; assay: as above
Procedure, shortened: as §2

[9] = test system: Amaranthus retroflexus; assay: as above
Procedure, shortened: as §2

[10] = test system: Lolium multiflorum Lam.; assay: as above
Procedure, shortened: as §2

[11] = test system: Digitaria ciliaris; assay: as above
Procedure, shortened: as §2

[12] = test system: Setaria viridis; assay: as above
Procedure, shortened: as §2

[13] = test system: Apera spica-venti.; assay: as above
Procedure, shortened: as §2

[14] = test system: Veronica persica; assay: as above
Procedure, shortened: as §2

[15] = test system: Chenopodium album; assay: as above
Procedure, shortened: as §2

[16] = test system: Abutilon theophrasti; assay: as above
Procedure, shortened: as §2

[17] = test system: Brassica campestris L.; assay: Test Example 4: effect on crop by application to foliage (diluvial soil, plastic box)
Procedure, shortened: as §2

[18] = test system: Glycine max; assay: as above
Procedure, shortened: as §2

[19] = test system: Beta vulgaris ssp. vulgaris; assay: as above
Procedure, shortened: as §2

[20] = test system: directly sowed Oryza sativa; assay: as above
Procedure, shortened: as §2

[21] = test system: Zea mays; assay: as above
Procedure, shortened: as §2

[22] = test system: Triticum aestivum; assay: as above
Procedure, shortened: as §2

[23] = application to foliage, application herbicide amount 320 g/ha
[24] = application herbicide amount 320 g/ha
[25] = application to foliage, 320 g/ha

CC(C)c1nnc2c(C(=O)Nc3nnnn3C)ccc(C(F)(F)F)n12 [2-003]
B: Scirpus juncoides (herbicidal effect grade) [1]: 5 (Herbicidal ratio of 90% or more (almost completely withered))
A: Echinochloa oryzicola Vasing. (herbicidal effect grade) [2]: 5 (Herbicidal ratio of 90% or more (almost completely withered))
C: Monochoria vaginalis (herbicidal effect grade) [3]: 5 (Herbicidal ratio of 90% or more (almost completely withered))
H: herbicidal effect on Echinochloa crus-galli var. crus-galli [4, 23]: 5 (Herbicidal ratio of 90% or more (almost completely withered))
Q: herbicidal effect on Galium spurium [5, 23]: 4 (Herbicidal ratio of 70% or more and less than 90%)
J: herbicidal effect on Alopecurus myosuroides [6, 23]: 3 (Herbicidal ratio of 40% or more and less than 70%)
P: herbicidal effect on Stellaria media [7, 23]: 5 (Herbicidal ratio of 90% or more (almost completely withered))
I: herbicidal effect on Avena fatua [8, 23]: 3 (Herbicidal ratio of 40% or more and less than 70%)
N: herbicidal effect on Amaranthus retroflexus [9, 23]: 5 (Herbicidal ratio of 90% or more (almost completely withered))
K: herbicidal effect on Lolium multiflorum Lam. [10, 23]: 3 (Herbicidal ratio of 40% or more and less than 70%)
F: herbicidal effect on Digitaria ciliaris [11, 23]: 5 (Herbicidal ratio of 90% or more (almost completely withered))
G: herbicidal effect on Setaria viridis [12, 23]: 5 (Herbicidal ratio of 90% or more (almost completely withered))
L: herbicidal effect on Apera spica-venti. [13, 23]: 5 (Herbicidal ratio of 90% or more (almost completely withered))
R: herbicidal effect on Veronica persica [14, 23]: 5 (Herbicidal ratio of 90% or more (almost completely withered))
O: herbicidal effect on Chenopodium album [15, 23]: 5 (Herbicidal ratio of 90% or more (almost completely withered))
M: herbicidal effect on Abutilon theophrasti [16, 23]: 5 (Herbicidal ratio of 90% or more (almost completely withered))
g: effect on crop, Brassica campestris L. [17, 23]: 5 (Herbicidal ratio of 90% or more (almost completely withered))
d: effect on crop, Glycine max [18, 23]: 4 (Herbicidal ratio of 70% or more and less than 90%)
f: effect on crop, Beta vulgaris ssp. vulgaris [19, 23]: 5 (Herbicidal ratio of 90% or more (almost completely withered))
b: effect on crop, directly sowed Oryza sativa [20, 23]: 4 (Herbicidal ratio of 70% or more and less than 90%)
c: effect on crop, Zea mays [21, 23]: 1 (Herbicidal ratio of 5% or more and less than 20%)
e: effect on crop, Triticum aestivum [22, 23]: 3 (Herbicidal ratio of 40% or more and less than 70%)

COc1ccccc1-c1nnc2c(C(=O)Nc3nnnn3C)ccc(C(F)(F)F)n12 [2-045]
B: Scirpus juncoides (herbicidal effect grade) [1]: 5 (Herbicidal ratio of 90% or more (almost completely withered))
A: Echinochloa oryzicola Vasing. (herbicidal effect grade) [2]: 5 (Herbicidal ratio of 90% or more (almost completely withered))
C: Monochoria vaginalis (herbicidal effect grade) [3]: 5 (Herbicidal ratio of 90% or more (almost completely withered))
H (Echinochloa crus-galli var. crus-galli) herbicidal effect grade ([4]; foliage application, 320 g/ha): 5 (Herbicidal ratio of 90% or more (almost completely withered))
Q (Galium spurium) herbicidal effect grade ([5]; foliage application, 320 g/ha): 3 (Herbicidal ratio of 40% or more and less than 70%)
J (Alopecurus myosuroides) herbicidal effect grade ([6]; foliage application, 320 g/ha): 1 (Herbicidal ratio of 5% or more and less than 20%)
P (Stellaria media) herbicidal effect grade ([7]; foliage application, 320 g/ha): 5 (Herbicidal ratio of 90% or more (almost completely withered))
I (Avena fatua) herbicidal effect grade ([8]; foliage application, 320 g/ha): 2 (Herbicidal ratio of 20% or more and less than 40%)
N (Amaranthus retroflexus) herbicidal effect grade ([9]; foliage application, 320 g/ha): 5 (Herbicidal ratio of 90% or more (almost completely withered))
K (Lolium multiflorum Lam.) herbicidal effect grade ([10]; foliage application, 320 g/ha): 1 (Herbicidal ratio of 5% or more and less than 20%)
F (Digitaria ciliaris) herbicidal effect grade ([11]; foliage application, 320 g/ha): 5 (Herbicidal ratio of 90% or more (almost completely withered))
G (Setaria viridis) herbicidal effect grade ([12]; foliage application, 320 g/ha): 4 (Herbicidal ratio of 70% or more and less than 90%)
L (Apera spica-venti.) herbicidal effect grade ([13]; foliage application, 320 g/ha): 3 (Herbicidal ratio of 40% or more and less than 70%)
R (Veronica persica) herbicidal effect grade ([14]; foliage application, 320 g/ha): 5 (Herbicidal ratio of 90% or more (almost completely withered))
O (Chenopodium album) herbicidal effect grade ([15]; foliage application, 320 g/ha): 5 (Herbicidal ratio of 90% or more (almost completely withered))
M (Abutilon theophrasti) herbicidal effect grade ([16]; foliage application, 320 g/ha): 5 (Herbicidal ratio of 90% or more (almost completely withered))
g (Brassica campestris L.) effect on crop grade ([17]; foliage application, 320 g/ha): 5 (Herbicidal ratio of 90% or more (almost completely withered))
c (Glycine max) effect on crop grade ([18]; foliage application, 320 g/ha): 3 (Herbicidal ratio of 40% or more and less than 70%)
f (Beta vulgaris ssp. vulgaris) effect on crop grade ([19]; foliage application, 320 g/ha): 5 (Herbicidal ratio of 90% or more (almost completely withered))
d (directly sowed Oryza sativa) effect on crop grade ([20]; foliage application, 320 g/ha): 4 (Herbicidal ratio of 70% or more and less than 90%)
b (Zea mays) effect on crop grade ([21]; foliage application, 320 g/ha): 4 (Herbicidal ratio of 70% or more and less than 90%)
e (Triticum aestivum) effect on crop grade ([22]; foliage application, 320 g/ha): 1 (Herbicidal ratio of 5% or more and less than 20%)

C=CCSc1nnc2c(C(=O)Nc3nnnn3C)ccc(C(F)(F)F)n12 [2-102]
B (Scirpus juncoides) herbicidal ratio grade [1, 24]: 5 (Herbicidal ratio of 90% or more (almost completely withered))
A (Echinochloa oryzicola Vasing.) herbicidal ratio grade [2, 24]: 5 (Herbicidal ratio of 90% or more (almost completely withered))
C (Monochoria vaginalis) herbicidal ratio grade [3, 24]: 4 (Herbicidal ratio of 70% or more and less than 90%)
herbicidal effect, H (Echinochloa crus-galli var. crus-galli) [4, 25]: 5 (Herbicidal ratio of 90% or more (almost completely withered))
herbicidal effect, Q (Galium spurium) [5, 25]: 3 (Herbicidal ratio of 40% or more and less than 70%)
herbicidal effect, J (Alopecurus myosuroides) [6, 25]: 0 (Herbicidal ratio of 5% or less (almost no effect))
herbicidal effect, P (Stellaria media) [7, 25]: 5 (Herbicidal ratio of 90% or more (almost completely withered))
herbicidal effect, I (Avena fatua) [8, 25]: 1 (Herbicidal ratio of 5% or more and less than 20%)
herbicidal effect, N (Amaranthus retroflexus) [9, 25]: 5 (Herbicidal ratio of 90% or more (almost completely withered))
herbicidal effect, K (Lolium multiflorum Lam.) [10, 25]: 1 (Herbicidal ratio of 5% or more and less than 20%)
herbicidal effect, F (Digitaria ciliaris) [11, 25]: 5 (Herbicidal ratio of 90% or more (almost completely withered))
herbicidal effect, G (Setaria viridis) [12, 25]: 4 (Herbicidal ratio of 70% or more and less than 90%)
herbicidal effect, L (Apera spica-venti.) [13, 25]: 3 (Herbicidal ratio of 40% or more and less than 70%)
herbicidal effect, R (Veronica persica) [14, 25]: 5 (Herbicidal ratio of 90% or more (almost completely withered))
herbicidal effect, O (Chenopodium album) [15, 25]: 5 (Herbicidal ratio of 90% or more (almost completely withered))
herbicidal effect, M (Abutilon theophrasti) [16, 25]: 5 (Herbicidal ratio of 90% or more (almost completely withered))
effect on crop, g (Brassica campestris L.) [17, 25]: 3 (Herbicidal ratio of 40% or more and less than 70%)
effect on crop, c (Glycine max) [18, 25]: 0 (Herbicidal ratio of 5% or less (almost no effect))
effect on crop, f (Beta vulgaris ssp. vulgaris) [19, 25]: 5 (Herbicidal ratio of 90% or more (almost completely withered))
effect on crop, d (directly sowed Oryza sativa) [20, 25]: 4 (Herbicidal ratio of 70% or more and less than 90%)
effect on crop, b (Zea mays) [21, 25]: 1 (Herbicidal ratio of 5% or more and less than 20%)
effect on crop, e (Triticum aestivum) [22, 25]: 1 (Herbicidal ratio of 5% or more and less than 20%)
